In the NIST ThermoML archive (doi:10.1021/acs.jced.7b00201):

Test: xn = mol fraction of the nth substance listed
Details: 100 kPa, Liquid; for viscosity: Falling or rolling sphere viscometry; for mass density: Vibrating tube method

OCC1CC1 [cyclopropylmethanol] + CCCCCCCCCCCC
Details | mass density [kg/m3] | viscosity [mPa·s]
293.15 K, x1 = 0.1039 | – | 1.484
293.15 K, x1 = 0.1135 | 754.8 | –
293.15 K, x1 = 0.2032 | – | 1.521
293.15 K, x1 = 0.2127 | 761.38 | –
293.15 K, x1 = 0.3022 | – | 1.605
293.15 K, x1 = 0.3059 | 768.71 | –
293.15 K, x1 = 0.3804 | 775.49 | –
293.15 K, x1 = 0.3997 | – | 1.683
293.15 K, x1 = 0.4993 | – | 1.884
293.15 K, x1 = 0.5067 | 789.46 | –
293.15 K, x1 = 0.5994 | – | 2.084
293.15 K, x1 = 0.6019 | 802.62 | –
293.15 K, x1 = 0.7 | – | 2.335
293.15 K, x1 = 0.7011 | 819.64 | –
293.15 K, x1 = 0.7921 | 839.53 | –
293.15 K, x1 = 0.797 | – | 2.671
293.15 K, x1 = 0.8991 | 870.68 | –
293.15 K, x1 = 0.9004 | – | 3.205
293.15 K, x1 = 1 | 912.99 | 4.029
298.15 K, x1 = 0.1039 | – | 1.354
298.15 K, x1 = 0.1135 | 751.08 | –
298.15 K, x1 = 0.2032 | – | 1.382
298.15 K, x1 = 0.2127 | 757.63 | –
298.15 K, x1 = 0.3022 | – | 1.455
298.15 K, x1 = 0.3059 | 764.92 | –
298.15 K, x1 = 0.3804 | 771.68 | –
298.15 K, x1 = 0.3997 | – | 1.52
298.15 K, x1 = 0.4993 | – | 1.688
298.15 K, x1 = 0.5067 | 785.59 | –
298.15 K, x1 = 0.5994 | – | 1.854
298.15 K, x1 = 0.6019 | 798.72 | –
298.15 K, x1 = 0.7 | – | 2.068
298.15 K, x1 = 0.7011 | 815.7 | –
298.15 K, x1 = 0.7921 | 835.57 | –
298.15 K, x1 = 0.797 | – | 2.35
298.15 K, x1 = 0.8991 | 866.69 | –
298.15 K, x1 = 0.9004 | – | 2.801
298.15 K, x1 = 1 | 908.94 | 3.485
303.15 K, x1 = 0.1039 | – | 1.241
303.15 K, x1 = 0.1135 | 747.35 | –
303.15 K, x1 = 0.2032 | – | 1.276
303.15 K, x1 = 0.2127 | 753.86 | –
303.15 K, x1 = 0.3022 | – | 1.325
303.15 K, x1 = 0.3059 | 761.1 | –
303.15 K, x1 = 0.3804 | 767.83 | –
303.15 K, x1 = 0.3997 | – | 1.38
303.15 K, x1 = 0.4993 | – | 1.521
303.15 K, x1 = 0.5067 | 781.69 | –
303.15 K, x1 = 0.5994 | – | 1.662
303.15 K, x1 = 0.6019 | 794.79 | –
303.15 K, x1 = 0.7 | – | 1.842
303.15 K, x1 = 0.7011 | 811.73 | –
303.15 K, x1 = 0.7921 | 831.56 | –
303.15 K, x1 = 0.797 | – | 2.081
303.15 K, x1 = 0.8991 | 862.66 | –
303.15 K, x1 = 0.9004 | – | 2.463
303.15 K, x1 = 1 | 904.85 | 3.037
308.15 K, x1 = 0.1039 | – | 1.142
308.15 K, x1 = 0.1135 | 743.6 | –
308.15 K, x1 = 0.2032 | – | 1.171
308.15 K, x1 = 0.2127 | 750.06 | –
308.15 K, x1 = 0.3022 | – | 1.213
308.15 K, x1 = 0.3059 | 757.26 | –
308.15 K, x1 = 0.3804 | 763.96 | –
308.15 K, x1 = 0.3997 | – | 1.258
308.15 K, x1 = 0.4993 | – | 1.378
308.15 K, x1 = 0.5067 | 777.76 | –
308.15 K, x1 = 0.5994 | – | 1.497
308.15 K, x1 = 0.6019 | 790.82 | –
308.15 K, x1 = 0.7 | – | 1.65
308.15 K, x1 = 0.7011 | 807.72 | –
308.15 K, x1 = 0.7921 | 827.52 | –
308.15 K, x1 = 0.797 | – | 1.853
308.15 K, x1 = 0.8991 | 858.59 | –
308.15 K, x1 = 0.9004 | – | 2.176
308.15 K, x1 = 1 | 900.74 | 2.661
313.15 K, x1 = 0.1039 | – | 1.055
313.15 K, x1 = 0.1135 | 739.84 | –
313.15 K, x1 = 0.2032 | – | 1.079
313.15 K, x1 = 0.2127 | 746.24 | –
313.15 K, x1 = 0.3022 | – | 1.114
313.15 K, x1 = 0.3059 | 753.4 | –
313.15 K, x1 = 0.3804 | 760.06 | –
313.15 K, x1 = 0.3997 | – | 1.153
313.15 K, x1 = 0.4993 | – | 1.254
313.15 K, x1 = 0.5067 | 773.81 | –
313.15 K, x1 = 0.5994 | – | 1.355
313.15 K, x1 = 0.6019 | 786.82 | –
313.15 K, x1 = 0.7 | – | 1.485
313.15 K, x1 = 0.7011 | 803.68 | –
313.15 K, x1 = 0.7921 | 823.45 | –
313.15 K, x1 = 0.797 | – | 1.658
313.15 K, x1 = 0.8991 | 854.48 | –
313.15 K, x1 = 0.9004 | – | 1.933
313.15 K, x1 = 1 | 896.58 | 2.344
318.15 K, x1 = 0.1039 | – | 0.977
318.15 K, x1 = 0.2032 | – | 0.998
318.15 K, x1 = 0.3022 | – | 1.028
318.15 K, x1 = 0.3997 | – | 1.06
318.15 K, x1 = 0.4993 | – | 1.146
318.15 K, x1 = 0.5994 | – | 1.232
318.15 K, x1 = 0.7 | – | 1.343
318.15 K, x1 = 0.797 | – | 1.491
318.15 K, x1 = 0.9004 | – | 1.725
318.15 K, x1 = 1 | – | 2.074
